Test results: patent US20240108637A1, “EPITE[…] AND/OR A STEROID SULFATASE INHIBITOR FOR USE IN TREATING OR IMPROVING AGE RELATED COGNITIVE IMPAIRMENT” (U[…] DE OLAVIDE, priority 2020, published 2024)
Entries after “also recorded” stand apart in the source; their conditions may differ. Counter-ions that a name gives are not always drawn.

How the values were obtained:
[1] = system: NL5901 strain expressing α-synuclein in muscle cells; experiment: Parkinson's disease model: mobility of NL5901 strain; type: in vivo, C. elegans; conditions: 1 μg/ml
From the text: We have studied the anatomical location of sul-2 expression from an extrachromosomal array and in single-copy insertion transgenic strains. […] There is no detectable expression in the germline in any transgenic strains (FIG. 2n and FIG. 10, 11a-b). ASE neurons are responsible for the attractive response of Na+ and Cl−, among others. Defects in odour sensing affect longevity. Therefore, we tested the ability of sul-2 mutants to respond to Cl− or Na+ and found no differences compared to wild type animals (FIG. 11c-d). Furthermore, sul-2 mutation increases the longevity of daf-10(m79), a long-lived mutant defective in sensory cilia formation25 (FIG. 11e). […] Reduction of sul-2 improves aging associated diseases in C. elegans Aging is considered the main risk factor for the onset of neurodegenerative disorders like Parkinson, Huntington, or Alzheimer's diseases. These disorders are caused by the progressive decline of proteostasis, which results in protein aggregation that compromises cellular functions and finally causes cell death. Germline-deficient C. elegans delay the symptoms derived from the proteotoxicity of ectopically expressed human β-amyloid (βA). We tested if sul-2 mutations or STX64 treatment improves the symptoms of C. elegans models for neurodegenerative diseases.

[2] = system: mammalian model with intrahippocampal βA oligomers; conditions: local administration; previously reported; cited from earlier work
[3] = system: C. elegans; experiment: Lifespan assays in C. elegans; type: in vivo, Caenorhabditis elegans; conditions: for life span / longevity: wild type background, FIG. 4f-g, FIG. 13c-d
Experimental: F2 L4 animals were shifted to 25° C. (t=0). ES treatment started at L4 stage, control and treated plates were prepared fresh and animals transferred each three days until death. Animals lost or dead by non-physiological causes were censured. Survival curves were generated using the product-limit method of Kaplan and Meier. The log-rank (Mantel-Cox) test was used to evaluate differences in survival and […] lower than 0.05 were considered significant.

[4] = system: GMC101 strain expressing human β-amyloid in muscle; experiment: Alzheimer's disease model: thermodependent paralysis of GMC101 strain; type: in vivo, C. elegans; conditions: 1 μg/ml
From the text: In this model, GFP-labelled dopaminergic neurons die due to α-synuclein toxicity. […] We also tested two different strains of Alzheimer's disease (AD) in worms, where immobility is caused by expression of βA protein in muscle cells.

[5] = system: daf-2(e1370); experiment: Developmental arrest (dauer / L1) at 25° C.; type: in vivo, C. elegans; conditions: daf-2(e1370) background
Experimental: Worms were growth at 16° C. until L4, then shifted to 25° C. considering this Day 0 of adulthood. The pumping was counted under the Leica stereoscope at 100× magnification for 30 seconds. Data display from two independent biological assays (n=30 per day). Two-tailed Mann-Whitney t-test, ***p=0.0006. e Thrashing in sul-2(gk187) is similar to wild type but is slightly lower in sul-2 (pv17) at 25° C. on day 1 of adulthood. On day 6 at 25° of adulthood, the trashing on sul-2(gk187) is lower than wild type and sul-(pv17), with no differences among these last strains. The population of sul-2(gk17) at day 6 seems to distribute into two different populations, one with almost no thrashing and other with values similar to wild type a sul-2(pv17). […] In this condition, all animals from daf-2(e1370); sul-2(pv17) double mutants arrest at L1 stage. Similarly, more than 50% of animals arrest in L1 stage in daf-2(m577); sul-2(pv17) background, while none of the single mutants show this phenotype. i Example of sul-2(pv17) larvae, dauer larval arrest of daf-2(e1370) or L1 arrest of daf-2(e1370); sul-2 (pv17) and daf-2(e1370); sul-2(gk187) at 25° C. Animals were grown up to L4 at 16° C., then shifted at 25° C., progeny were scored or imaged after 72 hours. Photographs were taken in a Leica scope.

[6] = system: aged mice; experiment: Object recognition test in aged mice; type: in vivo; conditions: aged mice, vs vehicle-treated, FIG. 21
Experimental: (§1) The first, object recognition, after training with identical objects, tests the ability to identify different objects exposed together with a familiar one. When this happens, the object discrimination index is positive and higher than 0.1. […] For this purpose, during training, the entry latency to the preferred site is established and the aversive stimulus is administered.

[7] = system: aged mice; experiment: Passive avoidance test in aged mice (STM and LTM); type: in vivo; conditions: aged mice, vs vehicle-treated, FIG. 21
Experimental: as §1
During short- and long-term memory tests (STM and LTM) if the mouse associated the preferred place to the aversive stimulus, the input latency increases with respect to training.

[8] = system: 16-month-old mice; experiment: Open Field test; type: in vivo; conditions: FIG. 20; for habituation ability: aged animals, Open Field 15 minutes
Experimental: (§2) The “Open Field” is a test where the mouse must explore an unknown space for 15 minutes. In this test, both mobility and habituation (cognitive parameter that measures the individual's ability to recognize the environment) can be studied. On the other hand, the “Y maze” test is a test where the mouse explores the maze for 6 minutes. This test evaluates the distance traveled as a measure of mobility and the ability to visit triplets of arms without repeating any of them as a sign of immediate memory.

[9] = system: 16-month-old mice; experiment: Y maze test; type: in vivo; conditions: aged animals, Y maze 6 minutes, FIG. 20
Experimental: as §2

Compound: C[C@]12CC[C@H](O)CC1=CC[C@@H]1[C@@H]2CC[C@]2(C)C(=O)CC[C@@H]12 [DHEA]
- mobility with age [1]: No effect is observed; also recorded: showed no effect

Compound: CCCCCCCCCCCCCC(=O)NCCc1ccc(OS(N)(=O)=O)cc1 [DU-14]
- memory loss [2]: could alleviate memory loss

Compound: C[C@]12CC[C@H]3[C@@H](CCC4=CC(=O)CC[C@@]43C)[C@@H]1CC[C@H]2OS(=O)(=O)O [ES, N,N-diethylethanamine;[(8R,9S,10R,13S,14S,17R)-10,13-dimethyl-3-oxo-1,2,6,7,8,9,11,12,14,15,16,17-dodecahydrocyclopenta[a]phenanthren-17-yl]hydrogen sulfate]
- lifespan ([3]; FIG. 15, treatment from L4 stage, 25° C., fer-15(b26) background, p<0.05 Log-Rank (Mantel-Cox)): significantly increased life span
- lifespan ([3]; sul-2(gk187) background, 1 μg/ml, FIG. 4f): does not further increase
- lifespan ([3]; sul-2(pv17) background, 1 μg/ml, FIG. 13c,d): does not increase further
- longevity ([3]; sul-2 mutants backgrounds): did not further increase longevity
- life span / longevity ([3]; 1 μg/ml): increases life span; also recorded: increased in longevity; also recorded: increases lifespan
- mobility with age [1]: improved the mobility; also recorded: better result
- paralysis phenotype ([4]; FIG. 3h, FIG. 4b): is ameliorate
- paralysis phenotype ([4]; normal NGM plates, FIG. 13a): is reduced
- L1 arrest [5]: increase
- learning and memory, object recognition test [6]: showed significantly both learning (STM) and ability to store information (memory); also recorded: significant improvement in both learning (STM) and ability to store information (memory)
- learning and memory, object recognition test ([6]; listed as E-S): showed significantly both learning (STM) and ability to store information (memory)
- learning (STM) and memory (LTM), passive avoidance test [7]: showed significantly both learning (STM) and ability to store information (memory); also recorded: significant improvement in both learning (STM) and ability to store information (memory)
- learning (STM) and memory (LTM), passive avoidance test ([7]; listed as E-S): showed significantly both learning (STM) and ability to store information (memory)
- motor ability (mobility) ([8]; 16-month-old mice, Open Field mobility and Y maze distance traveled): tend to improve
- habituation ability [8]: tend to improve
- habituation ability ([8]; listed as E-S): are improved
- immediate memory [9]: tend to improve
- immediate memory ([9]; listed as E-S): are improved

Compound: C[C@]12CC[C@H]3[C@@H](CCC4=CC(=O)CC[C@@]43C)[C@@H]1CC[C@@H]2O [T, testosterone]
- mobility with age [1]: No effect is observed
- mobility with age ([1]; listed as testosterone): showed no effect

Compound: C[C@]12CC[C@H]3[C@@H](CCC4=CC(=O)CC[C@@]43C)[C@@H]1CC[C@@H]2OS(=O)(=O)O [TS, [(8R,9S,10R,13S,14S,17S)-10,13-dimethyl-3-oxo-1,2,6,7,8,9,11,12,14,15,16,17-dodecahydrocyclopenta[a]phenanthren-17-yl] hydrogen sulfate]
- life span / longevity ([3]; 1 μg/ml): does not affect longevity; also recorded: do not affect
- mobility with age [1]: improved the mobility
- paralysis phenotype ([4]; FIG. 3h, FIG. 4b): is ameliorate
- paralysis phenotype ([4]; normal NGM plates, FIG. 13a): is reduced
- L1 arrest [5]: increase

Compound: dehidroepiandrosterone sulfate [DHEAS]
- life span / longevity ([3]; 1 μg/ml): does not affect longevity; also recorded: do not affect
- mobility with age [1]: improved the mobility
- L1 arrest [5]: increase

Compound: pregnenolone sulfate [PregS]
- mobility with age [1]: No effect is observed
- mobility with age ([1]; listed as pregnenolone sulfate): showed no effect
